Structures can show the parent of a compound that is named as a salt.

The target in the first assay is T1, GAβ-dependent amyloid fibril formation (Human Aβ1-40 + GM1-containing liposome) (Homo sapiens, UniProt P05067).
T1 construct: Human Aβ1-40 (cat. #4307-v, prepared by Peptide Institute); purchased Peptide Institute 4307-v
T1 sequence (P05067 672-711 limits assumed): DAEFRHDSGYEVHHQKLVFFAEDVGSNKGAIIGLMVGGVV
Nature of the assay: Thioflavin T (ThT) assay of GAβ-dependent amyloid fibril formation (Aβ1-40 with GM1-containing liposome). It is filed as biochemical. The conditions noted are these: @25 μM; read-out: ThT Inhibitory activity (% inhibition). The essentials: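 Human Aβ1-40 (75 μM stock) pre-incubated 10 min at room temperature with compound (75 or 15 μM solution), then GM1-containing cholesterol/sphingomyelin liposome added and incubated 37° C, 18 hours. Fibrils quantified by ThT fluorescence (ex 430/em 490 nm, pH 8.5 glycine buffer); inhibition as ratio to compound-free control.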
Regarding `OC(Cc1c[nH]c2ccccc12)c1nc(-c2ccc(OC(F)(F)F)cc2)no1` (stereo not drawn) [Compound 101, 2-(1H-indol-3-yl)-1-{3-[4-(trifluoromethoxy)phenyl]-1,2,4-oxadiazol-5-yl}ethan-1-ol], the inhibition at 25 µM is 87%.

`O=C(N[C@@H](CO)c1nnc(-c2ccc(OC(F)(F)F)cc2)o1)c1ccc(Cl)cc1` [Compound 104, (S)-4-chloro-N-(2-hydroxy-1-{5-[4-(trifluoromethoxy)phenyl]-1,3,4-oxadiazol-2-yl}ethyl)benzamide]: the inhibition at 25 µM came to 75%.

Regarding `CNCC(NC(=O)c1ccc(Cl)cc1)c1nnc(-c2ccc(OC(F)(F)F)cc2)o1` (stereo not drawn) [Compound 118, 4-chloro-N-(2-(methylamino)-1-(5-(4-(tri-fluoromethoxy)phenyl)-1,3,4-oxadiazol-2-yl)ethyl)benzamide], the inhibition at 25 µM is 72%.

The same assay, now with this note: inhibition rate against amyloid fibril formation, final concentration of the compound 25 μM; read-out: Inhibitory activity ABC evaluation.
Turning to `O=C(c1ccc(Cl)cc1)N(CCO)[C@@H](CO)c1nc(-c2ccc(OC(F)(F)F)cc2)no1` [Compound 96, (S)-4-chloro-N-(2-hydroxy-1-{3-[4-(trifluoromethoxy)phenyl]-1,2,4-oxadiazol-5-yl}ethyl)-N-(2-hydroxyethyl)benzamide], the inhibition at 25 µM lay in the range of 40 to 80%.

As to `OC[C@H](NC(=S)Nc1ccc(Cl)cc1)c1nc(-c2ccc(OC(F)(F)F)cc2)no1` [Compound 97, (S)-1-(4-chloro-phenyl)-3-(2-hydroxy-1-[3-{4-(trifluoromethoxy)phenyl}-1,2,4-oxadiazol-5-yl]ethyl)thiourea], the inhibition at 25 µM lay within 40 to 80%.

Regarding `O=C(N[C@@H](CO)c1nc(-c2ccc(OC(F)(F)F)cc2)no1)c1ccc(O)c(Cl)c1` [Compound 98, (S)-3-chloro-4-hydroxy-N-(2-hydroxy-1-[3-{4-(trifluoromethoxy)phenyl}-1,2,4-oxadiazol-5-yl]ethyl)benzamide], the inhibition at 25 µM was < 40%.

With `O=C(N[C@@H](CO)c1nc(-c2ccc(O)c(F)c2)no1)c1ccc(Cl)cc1` [Compound 99, (S)-4-chloro-N-(1-(3-(3-fluoro-4-hydroxyphenyl)-1,2,4-oxadiazol-5-yl)-2-hydroxy-ethyl)benzamide], the inhibition at 25 µM was 40 to 80%.

With `N#Cc1ccc(C(=O)N[C@@H](CO)c2nc(-c3ccc(O)c(F)c3)no2)cc1` [Compound 100, (S)-4-cyano-N-(1-(3-(3-fluoro-4-hydroxyphenyl)-1,2,4-oxadiazol-5-yl)-2-hydroxy-ethyl)benzamide], the inhibition at 25 µM lay within 40 to 80%.

Regarding `OC(Cc1c[nH]c2ccccc12)c1nc(-c2ccc(OC(F)(F)F)cc2)no1` (stereo not drawn) [Compound 101, 2-(1H-indol-3-yl)-1-{3-[4-(trifluoromethoxy)phenyl]-1,2,4-oxadiazol-5-yl}ethan-1-ol], the inhibition at 25 µM is > 80%.

As to `O=C(NC(CO)(CO)c1nc(-c2ccc(OC(F)(F)F)cc2)no1)c1ccc(Cl)cc1` [Compound 102, 4-chloro-N-(1,3-dihydroxy-2-{3-[4-(trifluoromethoxy)phenyl]-1,2,4-oxadiazol-5-yl}propan-2-yl)benzamide], the inhibition at 25 µM was 40 to 80%.

As for `O=C1CC(c2nnc(-c3ccc(OC(F)(F)F)cc3)o2)CN1c1ccc(Cl)cc1` (stereo not drawn) [Compound 103, 1-(4-chlorophenyl)-4-{5-[4-(trifluoromethoxy)phenyl]-1,3,4-oxadiazol-2-yl}pyrrolidin-2-one], the inhibition at 25 µM was in the range of 40 to 80%.

For the compound `O=C(N[C@@H](CO)c1nnc(-c2ccc(OC(F)(F)F)cc2)o1)c1ccc(Cl)cc1` [Compound 104, (S)-4-chloro-N-(2-hydroxy-1-{5-[4-(trifluoromethoxy)phenyl]-1,3,4-oxadiazol-2-yl}ethyl)benzamide], the inhibition at 25 µM was in the range of 40 to 80%.

Turning to `CS(=O)(=O)Nc1ccc(-c2nnc([C@H](CO)NC(=O)c3ccc(Cl)cc3)o2)cc1` [Compound 105, (S)-4-chloro-N-(2-hydroxy-1-(5-(4-(methyl-sulfonamido)phenyl)-1,3,4-oxadiazol-2-yl)ethyl)benzamide], the inhibition at 25 µM was < 40%.

As to `N#Cc1cccc(-c2nnc([C@H](CO)NC(=O)c3ccc(Cl)cc3)o2)c1` [Compound 106, (S)-4-chloro-N-(1-(5-(3-cyanophenyl)-1,3,4-oxadiazol-2-yl)-2-hydroxyethyl) benzamide], the inhibition at 25 µM lay within 40 to 80%.

As to `O=C(N[C@H](CO)c1nnc(-c2ccc(OC(F)(F)F)cc2)o1)c1ccc(Cl)cc1` [Compound 107, (R)-4-chloro-N-(2-hydroxy-1-(5-(4-(trifluoro-methoxy)phenyl)-1,3,4-oxzdiazol-2-yl)ethyl)benzamide], the inhibition at 25 µM lay in the range of 40 to 80%.

`CS(=O)(=O)Nc1ccc(-c2nnc([C@@H](CO)NC(=O)c3ccc(Cl)cc3)o2)cc1` [Compound 108, (R)-4-chloro-N-(2-hydroxy-1-(5-(4-(methyl-sulfonamido)phenyl)-1,3,4-oxzdiazol-2-yl)ethyl)benzamide]: the inhibition at 25 µM is < 40%.

`N#Cc1cccc(-c2nnc([C@@H](CO)NC(=O)c3ccc(Cl)cc3)o2)c1` [Compound 109, (R)-4-chloro-N-(1-(5-(3-cyanophenyl)-1,3,4-oxadiazol-2-yl)-2-hydroxyethyl) benzamide]: the inhibition at 25 µM is < 40%.

In the case of `N[C@@H](Cc1c[nH]c2ccccc12)c1nnc(-c2ccc(OC(F)(F)F)cc2)o1` [Compound 110, (S)-2-(1H-indol-3-yl)-1-(5-(4-(trifluoro-methoxy)phenyl)-1,3,4-oxadiazol-2-yl) ethan-1-amine hydrochloride], the inhibition at 25 µM was 40 to 80%.

On to `CS(=O)(=O)Nc1ccc(-c2nnc([C@@H](N)Cc3c[nH]c4ccccc34)o2)cc1` [Compound 111, (S)-N-(4-(5-(1-amino-2-(1H-indol-3-yl)ethyl)-1,3,4-oxadiazol-2-yl)phenyl) methane-sulfonamide hydrochloride], for which the inhibition at 25 µM is < 40%.

Take `O=C(N[C@@H](CO)c1nnc(-c2ccc(OC(F)(F)F)cc2)o1)c1ccc(F)cc1` [Compound 112, (S)-4-fluoro-N-(2-hydroxy-1-(5-(4-(tri-fluoromethoxy)phenyl)-1,3,4-oxadiazol-2-yl)ethyl)benzamide]: the inhibition at 25 µM is 40 to 80%.

Consider `COc1ccc(-c2nnc([C@H](CO)NC(=O)c3ccc(Cl)cc3)o2)cc1F` [Compound 113, (S)-4-chloro-N-(1-(5-(3-fluoro-4-methoxy-phenyl)-1,3,4-oxadiazol-2-yl)-2-hydroxy-ethyl)benzamide], for which the inhibition at 25 µM was < 40%.

On to `N[C@H](Cc1c[nH]c2ccccc12)c1nnc(-c2ccc(OC(F)(F)F)cc2)o1` [Compound 114, (R)-2-(1H-indol-3-yl)-1-(5-(4-(trifluoro-methoxy)phenyl)-1,3,4-oxadiazol-2-yl) ethan-1-amine], for which the inhibition at 25 µM is > 80%.

Consider `C=C(NC(=O)c1ccc(Cl)cc1)c1nnc(-c2ccc(OC(F)(F)F)cc2)o1` [Compound 115, 4-chloro-N-(1-(5-(4-(trifluoromethoxy)phenyl)-1,3,4-oxadiazol-2-yl)vinyl)benzamide], for which the inhibition at 25 µM was < 40%.

On to `NCC(NC(=O)c1ccc(Cl)cc1)c1nnc(-c2ccc(OC(F)(F)F)cc2)o1` (stereo not drawn) [Compound 116, N-(2-amino-1-{5-[4-(trifluoromethoxy)phenyl]-1,3,4-oxadiazol-2-yl}ethyl)-4-chlorobenzamide], for which the inhibition at 25 µM is > 80%.

For the compound `O=C(NC(CN1CCOCC1)c1nnc(-c2ccc(OC(F)(F)F)cc2)o1)c1ccc(Cl)cc1` (stereo not drawn) [Compound 117, 4-chloro-N-(2-morpholino-1-(5-(4-(trifluoro-methoxy)phenyl)-1,3,4-oxadiazol-2-yl)ethyl) benzamide], the inhibition at 25 µM fell in the range of 40 to 80%.

Consider `CNCC(NC(=O)c1ccc(Cl)cc1)c1nnc(-c2ccc(OC(F)(F)F)cc2)o1` (stereo not drawn) [Compound 118, 4-chloro-N-(2-(methylamino)-1-(5-(4-(tri-fluoromethoxy)phenyl)-1,3,4-oxadiazol-2-yl)ethyl)benzamide], for which the inhibition at 25 µM is 40 to 80%.

For the compound `O=C(NC(CNCCO)c1nnc(-c2ccc(OC(F)(F)F)cc2)o1)c1ccc(Cl)cc1` (stereo not drawn) [Compound 119, 4-chloro-N-(2-((2-hydroxyethyl)amino)-1-(5-(4-(trifluoro-methoxy)phenyl)-1,3,4-oxadiazol-2-yl)ethyl) benzamide], the inhibition at 25 µM is 40 to 80%.

These data come from US10538516B2, “Oxadiazole derivative and pharmaceutical containing same” (National Center for Geriatrics and Gerontology, priority 2015, dated 2020).
